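Exposure lasted 48 hours, with cells grown in 96-well plates and compounds tested at five concentrations. GI50 = concentration required for 50% inhibition of growth.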 Activity calls are given as the source filed them. No stated cut-off is given here; in the data, active = GI50 up to about 1.1 µM and inactive = higher. Residues, ends and D or L forms follow the SMILES beside them. Peptide text beside a SMILES is read from it. * marks the point of attachment. *: point of attachment. Cbz = O=C(OCc1ccccc1)*; Boc = CC(C)(C)OC(=O)*; OBn = c1ccc(CO*)cc1
How the values were obtained:
Assay in all cases: NCI anticancer screen, dose series, 48 h
[1] = tested on: A549
[2] = tested on: ACHN
[3] = tested on: CAKI-1
[4] = tested on: CCRF-CEM
[5] = tested on: COLO 205
[6] = tested on: DU-145
[7] = tested on: HCT-15
[8] = tested on: HL-60
[9] = tested on: Hs-578T
[10] = tested on: KM12
[11] = tested on: MDA-MB-231
[12] = tested on: MDA-MB-435
[13] = tested on: Malme-3M
[14] = tested on: NCI-H460
[15] = tested on: SF-539
[16] = tested on: SK-MEL-2
[17] = tested on: SN12C
[18] = tested on: UACC-62
[19] = tested on: RPMI-8226
[20] = tested on: NCI-H522

Compound | GI50 [1] | GI50 [2] | GI50 [3] | GI50 [4] | GI50 [5] | GI50 [6] | GI50 [7] [µM] | GI50 [8] | GI50 [9] | GI50 [10] | GI50 [11] | GI50 [12] | GI50 [13] | GI50 [14] | GI50 [15] | GI50 [16] | GI50 [17] | GI50 [18] | GI50 [19] | GI50 [20]
Cc1cc2c3c(c1)S(=O)(=O)c1cc(Cl)ccc1N3CCC2 | > 100 µM (inactive) | > 100 µM (inactive) | > 100 µM (inactive) | > 100 µM (inactive) | > 100 µM (inactive) | > 100 µM (inactive) | > 100 | > 100 µM (inactive) | 22 µM (inactive) | > 100 µM (inactive) | 83.9 µM (inactive) | > 100 µM (inactive) | > 100 µM (inactive) | > 100 µM (inactive) | > 100 µM (inactive) | > 100 µM (inactive) | > 100 µM (inactive) | > 100 µM (inactive) | – | –
Cc1cccc(N(C(=O)Nc2ccc(Cl)c(Cl)c2)C2=NCC(C)S2)c1 (stereo not given) | 38.9 µM (inactive) | 50.1 µM (inactive) | 46.5 µM (inactive) | 46.1 µM (inactive) | 44.7 µM (inactive) | > 100 µM (inactive) | 41.6 | 41.6 µM (inactive) | 32.5 µM (inactive) | 18.9 µM (inactive) | 29.8 µM (inactive) | – | 60.1 µM (inactive) | 41.9 µM (inactive) | 22.7 µM (inactive) | 23.8 µM (inactive) | 59.3 µM (inactive) | – | 49.1 µM (inactive) | –
O=C1N=C(SC(SC2=NC(=O)C3(NN2)c2ccccc2-c2ccccc23)=C(SC2=NC(=O)C3(NN2)c2ccccc2-c2ccccc23)SC2=NC(=O)C3(NN2)c2ccccc2-c2ccccc23)NNC12c1ccccc1-c1ccccc12 | 6.65 µM (inactive) | 2.07 µM (inactive) | > 10 µM (inactive) | 5.21 µM (inactive) | 7.21 µM (inactive) | > 10 µM (inactive) | 3.62 | – | > 10 µM (inactive) | 9.29 µM (inactive) | 4.71 µM (inactive) | > 10 µM (inactive) | > 10 µM (inactive) | 3.33 µM (inactive) | > 10 µM (inactive) | – | 6.5 µM (inactive) | 6.53 µM (inactive) | 3.59 µM (inactive) | 4.54 µM (inactive)
CCCC(=O)Nc1cc(/C=C/C(=O)N2CC(CCl)c3ccc([N+](=O)[O-])cc32)n(C)c1 (stereo not given) | 58.3 µM (inactive) | 50.9 µM (inactive) | 57.5 µM (inactive) | 0.568 µM (active) | > 100 µM (inactive) | > 100 µM (inactive) | > 100 | – | 26.8 µM (inactive) | 19.5 µM (inactive) | 21.6 µM (inactive) | > 100 µM (inactive) | > 100 µM (inactive) | – | 43.4 µM (inactive) | > 100 µM (inactive) | > 100 µM (inactive) | > 100 µM (inactive) | 14.5 µM (inactive) | 28.8 µM (inactive)
CCOC(=O)C1=CC(C)(C(=O)OCC)Nc2c(nc(N)[nH]c2=O)N1 (stereo not given) | > 10 µM (inactive) | > 10 µM (inactive) | > 10 µM (inactive) | > 10 µM (inactive) | > 10 µM (inactive) | > 10 µM (inactive) | > 10 | – | > 10 µM (inactive) | > 10 µM (inactive) | > 10 µM (inactive) | > 10 µM (inactive) | > 10 µM (inactive) | > 10 µM (inactive) | > 10 µM (inactive) | > 10 µM (inactive) | > 10 µM (inactive) | – | > 10 µM (inactive) | > 10 µM (inactive)
COc1cc2ncnc(NS(=O)(=O)c3cc4ccccc4s3)c2cc1OC | > 100 µM (inactive) | > 100 µM (inactive) | > 100 µM (inactive) | > 100 µM (inactive) | > 100 µM (inactive) | > 100 µM (inactive) | > 100 | – | 49.9 µM (inactive) | > 100 µM (inactive) | > 100 µM (inactive) | > 100 µM (inactive) | > 100 µM (inactive) | > 100 µM (inactive) | > 100 µM (inactive) | > 100 µM (inactive) | 70.5 µM (inactive) | 89.1 µM (inactive) | 58.3 µM (inactive) | 28.2 µM (inactive)
CNc1nc(SC)nc2c1c(N)nn2C | > 100 µM (inactive) | > 100 µM (inactive) | > 100 µM (inactive) | > 100 µM (inactive) | > 100 µM (inactive) | > 100 µM (inactive) | > 100 | – | 95.3 µM (inactive) | > 100 µM (inactive) | > 100 µM (inactive) | > 100 µM (inactive) | > 100 µM (inactive) | > 100 µM (inactive) | – | > 100 µM (inactive) | > 100 µM (inactive) | > 100 µM (inactive) | > 100 µM (inactive) | > 100 µM (inactive)
COc1ccc2c(c1)nc1n2C(c2c(Cl)cccc2Cl)SC1 (stereo not given) | 18 µM (inactive) | 40.8 µM (inactive) | > 60.7 µM (inactive) | – | 4.63 µM (inactive) | 22.3 µM (inactive) | 5.81 | – | 5.45 µM (inactive) | 12.4 µM (inactive) | 29.3 µM (inactive) | 2.59 µM (inactive) | 3.01 µM (inactive) | 12.1 µM (inactive) | 9.1 µM (inactive) | > 20.7 µM (inactive) | > 57.5 µM (inactive) | 18.4 µM (inactive) | > 23.5 µM (inactive) | –
[N-]=[N+]=NC1=CC(=O)c2cccc3cccc1c23 | 32.4 µM (inactive) | 29.2 µM (inactive) | 22.2 µM (inactive) | 10.6 µM (inactive) | 49.7 µM (inactive) | 33.4 µM (inactive) | – | > 100 µM (inactive) | 17.9 µM (inactive) | 85.9 µM (inactive) | 73.8 µM (inactive) | 40 µM (inactive) | 31.4 µM (inactive) | 31.1 µM (inactive) | 31 µM (inactive) | – | 43.3 µM (inactive) | 16.5 µM (inactive) | 56.6 µM (inactive) | –
CC(C)CC(NC(=O)OC(C)(C)C)C(=O)NC(CC(=O)OCc1ccccc1)C(N)=O (stereo not drawn) (Boc-Leu-Asp(OBn)-NH2; configuration not given here) | > 100 µM (inactive) | > 100 µM (inactive) | > 100 µM (inactive) | – | > 100 µM (inactive) | > 100 µM (inactive) | > 100 | – | 58.9 µM (inactive) | > 100 µM (inactive) | > 100 µM (inactive) | > 100 µM (inactive) | > 100 µM (inactive) | – | > 100 µM (inactive) | > 100 µM (inactive) | > 100 µM (inactive) | > 100 µM (inactive) | – | > 100 µM (inactive)
CCOC(=O)CCC(NC(=O)OCc1ccccc1)C(=O)NC(CCC(=O)OCC)C(=O)OCC (stereo not given) (Cbz-Glu(OEt)-Glu(OEt)-OEt; configuration not given here) | > 100 µM (inactive) | > 100 µM (inactive) | > 100 µM (inactive) | > 100 µM (inactive) | > 100 µM (inactive) | > 100 µM (inactive) | > 100 | – | > 100 µM (inactive) | > 100 µM (inactive) | > 100 µM (inactive) | > 100 µM (inactive) | > 100 µM (inactive) | > 100 µM (inactive) | > 100 µM (inactive) | > 100 µM (inactive) | > 100 µM (inactive) | > 100 µM (inactive) | > 100 µM (inactive) | > 100 µM (inactive)
